Structures are written as SMILES. Calls of active or inactive are those of the source. The calls are words filed in the database; no cut-off is given here.

Data set [1] deals with T1, Amine oxidase [flavin-containing] B (Homo sapiens, UniProt P27338).
T1 sequence (P27338 whole entry): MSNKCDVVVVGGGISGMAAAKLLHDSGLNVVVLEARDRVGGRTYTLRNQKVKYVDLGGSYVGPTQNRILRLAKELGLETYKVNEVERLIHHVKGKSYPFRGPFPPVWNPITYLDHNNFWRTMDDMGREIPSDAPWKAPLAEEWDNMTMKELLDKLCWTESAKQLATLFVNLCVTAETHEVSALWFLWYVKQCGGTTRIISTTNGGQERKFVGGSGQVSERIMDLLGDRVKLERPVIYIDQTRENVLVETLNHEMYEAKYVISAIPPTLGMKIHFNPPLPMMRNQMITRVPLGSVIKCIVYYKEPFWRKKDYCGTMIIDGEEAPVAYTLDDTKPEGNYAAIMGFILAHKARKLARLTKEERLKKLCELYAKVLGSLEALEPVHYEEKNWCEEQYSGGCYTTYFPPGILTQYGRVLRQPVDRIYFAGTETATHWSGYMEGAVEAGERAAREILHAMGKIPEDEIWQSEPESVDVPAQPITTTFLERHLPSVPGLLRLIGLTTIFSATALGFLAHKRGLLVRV
Kind of data set: Inhibition of human recombinant MAO-B expressed in baculovirus infected BTI cells assessed as inhibition of 4-hydroxyquinoline formation using kynuramine as substrate preincubated with enzyme for 10 mins followed by addition of substrate and measured after 15 mins by fluorescence spectrophotometry.

Data set [2] has as its system PC-12. Kind of data set: Neuroprotective activity against CoCl2-induced cytotoxicity in rat PC12 cells assessed as increase in cell viability pretreated with CoCl2 for 8 hrs followed by incubation with drug and measured after 24 hrs by MTT assay relative to control. Type of data set: functional.
The subject of data set [3] is PC-12. Kind of data set: Neuroprotective activity against CoCl2-induced cytotoxicity in rat PC12 cells assessed as increase in cell viability at 1 uM pretreated with CoCl2 for 8 hrs followed by incubation with drug and measured after 24 hrs by MTT assay. Type of data set: functional, cell-based.
The target in data set [4] is T1, Amine oxidase [flavin-containing] B. Kind of data set: Inhibition of human recombinant MAO-B expressed in baculovirus infected BTI cells assessed as inhibition of 4-hydroxyquinoline formation using kynuramine as substrate preincubated with enzyme for 10 mins followed by addition of substrate and measured after 15 mins by fluorescence spectrophotometry relative to control. To be noted: 0.25 h, time 25 min, read-out: Imax.

The nature of data set [5]: n-Octanol/saturated water patition coefficient, logP of the compound at 0.05 mg/ml incubated for 24 hrs by HPLC analysis. The data set is classed as physicochemical.
For data set [6], the target named is T1, Amine oxidase [flavin-containing] B. Put plainly: Competitive inhibition of human recombinant MAO-B expressed in baculovirus infected BTI cells assessed as inhibition of 4-hydroxyquinoline formation using varying concentration of kynuramine as substrate preincubated with enzyme for 10 mins followed by addition of substrate and measured after 15 mins by Lineweaver-Burk plot analysis.

For data set [7], the system named is PC-12. Kind of data set: Neuroprotective activity against CoCl2-induced cytotoxicity in rat PC12 cells assessed as increase in cell viability pretreated with CoCl2 for 8 hrs followed by incubation with drug and measured after 24 hrs by MTT assay. The data set is classed as functional, cell-based.
Data set [8] concerns Rattus norvegicus. Kind of data set: Neuroprotective activity against middle cerebral artery occlusion-induced ischemia-reperfusion injury Sprague-Dawley rat model assessed as decrease in neurological deficit score administered ip for 2 days. The following applies: dose 12.5-50 mg/kg/day, time 2.0 day. The data set is classed as functional, organism-based.
Data set [9] deals with Rattus norvegicus. Kind of data set: Neuroprotective activity against middle cerebral artery occlusion-induced ischemia-reperfusion injury Sprague-Dawley rat model assessed as decrease in cerebral infarct volume at 12.5 to 50 mg/kg/day, ip administered for 2 days by magnetic resonance imaging analysis. The data set is classed as functional, organism-based. The following applies: dose 12.5-50 mg/kg/day, time 2.0 day.

The subject of data set [10] is Rattus norvegicus. Kind of data set: Inhibition of mitochondrial pathway of apoptosis in damaged cerebral hemisphere of middle cerebral artery occlusion-induced ischemia-reperfusion injury Sprague-Dawley rat model assessed as decrease in complement C3 protein expression at 25 mg/kg/day, ip administered for 2 days by western blot analysis. The data set is classed as functional, organism-based. To be noted: time 2.0 day.

Data set [11] relates to Rattus norvegicus. Put plainly: Ex vivo inhibition of MAO activity in infarcted cerebral hemisphere of middle cerebral artery occlusion-induced ischemia-reperfusion injury Sprague-Dawley rat model assessed as inhibition of 4-hydroxyquinoline formation using kynuramine as substrate at 25 mg/kg/day, ip for 2 days by fluorescence spectrophotometry. To be noted: time 2.0 day. Type of data set: functional, organism-based.

For data set [12], the system named is Rattus norvegicus. Put plainly: Inhibition of mitochondrial pathway of apoptosis in damaged cerebral hemisphere of middle cerebral artery occlusion-induced ischemia-reperfusion injury Sprague-Dawley rat model assessed as increase in NeuN protein expression at 25 mg/kg/day, ip administered for 2 days by western blot analysis. Type of data set: functional, organism-based. To be noted: time 2.0 day.

Data set [13] relates to Rattus norvegicus. Put plainly: Inhibition of mitochondrial pathway of apoptosis in damaged cerebral hemisphere of middle cerebral artery occlusion-induced ischemia-reperfusion injury Sprague-Dawley rat model assessed as increase in ratio of Bcl-2 to Bax at 25 mg/kg/day, ip administered for 2 days by western blot analysis. The data set is classed as functional, organism-based. The following applies: time 2.0 day.

With `OC[C@H]1O[C@@H](OCCc2ccc(O)cc2)[C@H](O)[C@@H](O)[C@@H]1O` [SALIDROSIDE], the IC50 in data set [1] is 810 nM. The Emax with PC-12 [2] is 27%; in data set [4] it was 52%. Besides, the outcome with PC-12 [3] was Active. Further, the logP in data set [5] (octanol/water, 24 h) is recorded as -0.89. Also, the Ki in data set [6] came out at 920 nM. For the same compound, the EC50 with PC-12 [7] worked out at 300 nM.

As to `OC[C@H]1O[C@@H](O)[C@H](O)[C@@H](O)[C@@H]1O`, the result in the data set on PC-12 [3] was inactive.

Turning to `CC(=O)OC[C@H]1O[C@@H](OCCc2ccc(O)cc2)[C@H](O)[C@@H](O)[C@@H]1O`, the outcome with PC-12 [3] was inactive.

For `C=CC(=O)Oc1ccc(CCO[C@@H]2O[C@H](CO)[C@@H](O)[C@H](O)[C@H]2O)cc1`, the outcome with PC-12 [3] was Active.

Consider `O=C(OC[C@H]1O[C@@H](OCCc2ccc(O)cc2)[C@H](O)[C@@H](O)[C@@H]1O)c1ccccc1`, for which, in the data set with PC-12 [3], the result was inactive.

`O=C(Oc1ccc(CCO[C@@H]2O[C@H](CO)[C@@H](O)[C@H](O)[C@H]2O)cc1)c1cccc(F)c1`: the outcome in the data set with PC-12 [3] was Active.

For `Cc1ccc(C(=O)Oc2ccc(CCO[C@@H]3O[C@H](CO)[C@@H](O)[C@H](O)[C@H]3O)cc2)cc1`, the result in the data set on PC-12 [3] was Active.

Turning to `COc1ccc(C(=O)Oc2ccc(CCO[C@@H]3O[C@H](CO)[C@@H](O)[C@H](O)[C@H]3O)cc2)cc1`, the outcome with PC-12 [3] was Active.

Turning to `OC[C@H]1O[C@H](OCCc2ccc(O)cc2)[C@H](O)[C@@H](O)[C@@H]1O`, in the data set on PC-12 [3], the outcome was inactive.

As for `CCCCCCC(=O)Oc1ccc(CCO[C@@H]2O[C@H](CO)[C@@H](O)[C@H](O)[C@H]2O)cc1`, in the data set with PC-12 [3], the result was Active.

As to `O=C(Oc1ccc(CCO[C@@H]2O[C@H](CO)[C@@H](O)[C@H](O)[C@H]2O)cc1)c1cccc(Cl)c1Cl`, in the data set with PC-12 [3], the result was inactive.

Consider `O=C(Oc1ccc(CCO[C@@H]2O[C@H](CO)[C@@H](O)[C@H](O)[C@H]2O)cc1)c1ccc(C(F)(F)F)cc1`, for which the result in the data set on PC-12 [3] was Active.

For the compound `O=C(Oc1ccc(CCO[C@@H]2O[C@H](CO)[C@@H](O)[C@H](O)[C@H]2O)cc1)c1c(Cl)cccc1Cl`, the result in the data set with PC-12 [3] was inactive.

As to `OCCc1ccc(O)cc1`, in the data set with PC-12 [3], the outcome was inactive.

Take `O=C(Oc1ccc(CCO[C@@H]2O[C@H](CO)[C@@H](O)[C@H](O)[C@H]2O)cc1)c1ccccc1`: the IC50 in [1] was determined as 80 nM. Further, the Emax turned out to be 42% in the data set with PC-12 [2] and 73.6% in [4]. In addition, in the data set with Rattus norvegicus [8], the Activity result is “Dose-dependent effect”. For the same compound, the result in the data set on Rattus norvegicus [9] and with PC-12 [3] was Active. Further, in data set [5] (n-octanol/saturated water), the logP at 24 h worked out at 1.44. For the same compound, the Ki in data set [6] is 41 nM. Moreover, the inhibition result in the data set with Rattus norvegicus [10], with Rattus norvegicus [11], in the data set on Rattus norvegicus [12] and in the data set with Rattus norvegicus [13] was “Active” in each case. Besides, the EC50 with PC-12 [7] is 38 nM.

Take `O=C(Oc1ccc(CCO[C@@H]2O[C@H](CO)[C@@H](O)[C@H](O)[C@H]2O)cc1)c1cccc(CCl)c1`: in the data set on PC-12 [3], the outcome was inactive.

In the case of `O=S(=O)(Oc1ccc(CCO[C@@H]2O[C@H](CO)[C@@H](O)[C@H](O)[C@H]2O)cc1)c1ccccc1`, the outcome with PC-12 [3] was inactive.

In the case of `O=C(Oc1ccc(CCO[C@@H]2O[C@H](CO)[C@@H](O)[C@H](O)[C@H]2O)cc1)C1CCCCC1`, in the data set with PC-12 [3], the result was Active.

Turning to `Cc1ccccc1C(=O)Oc1ccc(CCO[C@@H]2O[C@H](CO)[C@@H](O)[C@H](O)[C@H]2O)cc1`, the outcome in the data set with PC-12 [3] was Active.

Take `CCc1ccc(C(=O)Oc2ccc(CCO[C@@H]3O[C@H](CO)[C@@H](O)[C@H](O)[C@H]3O)cc2)cc1`: the outcome in the data set with PC-12 [3] was Active.

As to `O=C(/C=C/c1ccccc1)Oc1ccc(CCO[C@@H]2O[C@H](CO)[C@@H](O)[C@H](O)[C@H]2O)cc1`, in the data set on PC-12 [3], the result was Active.

For `CC(=O)OC[C@H]1O[C@@H](OCCc2ccc(O)cc2)[C@H](O)[C@@H](OC(C)=O)[C@@H]1O`, the outcome with PC-12 [3] was inactive.

As to `O=C(Oc1ccc(CCO[C@@H]2O[C@H](CO)[C@@H](O)[C@H](O)[C@H]2O)cc1)c1ccc2ccccc2c1`, the result in the data set with PC-12 [3] was inactive.

As for `O=C(Oc1ccc(CCO[C@@H]2O[C@H](CO)[C@@H](O)[C@H](O)[C@H]2O)cc1)c1cccc(Cl)c1`, in the data set with PC-12 [3], the result was inactive.

Take `Cc1cccc(C(=O)Oc2ccc(CCO[C@@H]3O[C@H](CO)[C@@H](O)[C@H](O)[C@H]3O)cc2)c1`: the outcome in the data set with PC-12 [3] was Active.

For `O=C(Oc1ccc(CCO[C@@H]2O[C@H](CO)[C@@H](O)[C@H](O)[C@H]2O)cc1)c1ccc(Cl)c(Cl)c1`, the outcome in the data set on PC-12 [3] was inactive.

As to `CC(=O)Oc1ccc(CCO[C@@H]2O[C@H](CO)[C@@H](O)[C@H](O)[C@H]2O)cc1`, in the data set on PC-12 [3], the result was Active.

Turning to `C/C=C/C(=O)Oc1ccc(CCO[C@@H]2O[C@H](CO)[C@@H](O)[C@H](O)[C@H]2O)cc1`, in the data set on PC-12 [3], the outcome was Active.

Turning to `O=C(Oc1ccc(CCO[C@@H]2O[C@H](CO)[C@@H](O)[C@H](O)[C@H]2O)cc1)c1ccc(CCl)cc1`, in the data set on PC-12 [3], the result was inactive.

As for `CCCc1ccc(C(=O)Oc2ccc(CCO[C@@H]3O[C@H](CO)[C@@H](O)[C@H](O)[C@H]3O)cc2)cc1`, the outcome with PC-12 [3] was Active.

(Values after ChEMBL document CHEMBL4706619, “Synthesis and identification of a novel derivative of salidroside as a selective, competitive inhibitor of monoamine oxidase B with enhanced neuroprotective properties” (Eur J Med Chem, 2021).)
